Measured values as given in patent US10597388B2, “Pyridazinone herbicides” (FMC CORPORATION, priority 2014, dated 2020).

How the values were obtained:
Test in all cases: Test E greenhouse herbicide test, pre- and postemergence
Type in all cases: in vivo
[1] = test system: Italian ryegrass (Lolium multiflorum)
Summary of the method: (§1)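 Herbicidal effect was judged by eye relative to untreated plants 14 to 21 d after spraying, using 0 for no effect and 100 for complete control. Preemergence sprays went onto freshly seeded silt loam; postemergence sprays onto 2–18 cm seedlings.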

[2] = test system: barnyardgrass (Echinochloa crus-galli)
Summary of the method: as §1

[3] = test system: beggarticks (hairy beggarticks, Bidens pilosa)
Summary of the method: as §1

corn (Zea mays) = test system: corn (Zea mays)
Summary of the method: as §1

[4] = test system: crabgrass, Brazilian (Brazilian crabgrass, Digitaria horizontalis)
Summary of the method: as §1

[5] = test system: crabgrass, large (large crabgrass, Digitaria sanguinalis); settings: Preemergence
Summary of the method: as §1

[6] = test system: field bindweed (Convolvulus arvensis)
Summary of the method: as §1

[7] = test system: foxtail, giant (giant foxtail, Setaria faberii); settings: Preemergence
Summary of the method: as §1

[8] = test system: foxtail, green (green foxtail, Setaria viridis); settings: Preemergence
Summary of the method: as §1

[9] = test system: horseweed (Conyza canadensis)
Summary of the method: as §1

kochia (Kochia scoparia) = test system: kochia (Kochia scoparia)
Summary of the method: as §1

[10] = test system: momingglory (Ipomoea coccinea); settings: Preemergence
Summary of the method: as §1

[11] = test system: nutsedge, yellow (yellow nutsedge, Cyperus esculentus); settings: Preemergence
Summary of the method: as §1

[12] = test system: panicum, fall (fall panicum, Panicum dichotomiflorum)
Summary of the method: as §1

[13] = test system: pigweed, palmer (palmer pigweed, Amaranthus palmeri)
Summary of the method: as §1

[14] = test system: ragweed (common ragweed, Ambrosia elatior)
Summary of the method: as §1

[15] = test system: velvetleaf (Abutilon theophrasti); settings: Preemergence
Summary of the method: as §1

[16] = 62 g ai/ha, Postemergence, scale 0 to 100 (0 no effect, 100 complete control)
[17] = 62 g ai/ha, Preemergence, scale 0 to 100 (0 no effect, 100 complete control)
[18] = 125 g ai/ha, Postemergence, scale 0 to 100 (0 no effect, 100 complete control)
[19] = 125 g ai/ha, Preemergence, scale 0 to 100 (0 no effect, 100 complete control)
[20] = 250 g ai/ha, Postemergence, scale 0 to 100 (0 no effect, 100 complete control)
[21] = Postemergence, 31 g ai/ha, visual, scale 0 no effect to 100 complete control
[22] = Preemergence, 31 g ai/ha, scale 0 to 100, 0 no effect, 100 complete control
[23] = Preemergence, 250 g ai/ha, visual, scale 0 no effect to 100 complete control
[24] = 62 g ai/ha, scale 0 to 100 (0 no effect, 100 complete control)
[25] = 125 g ai/ha, scale 0 to 100 (0 no effect, 100 complete control)
[26] = 250 g ai/ha, visual, scale 0 no effect to 100 complete control
[27] = 31 g ai/ha, scale 0 to 100, 0 no effect, 100 complete control

## CCOC(=O)Oc1c(C)nn(C)c(=O)c1-c1c(C)sc2ccc(C)cc12 [Compound 82]
[1]; [16]
  Plant response rating, Ryegrass, Italian: 70
[1]; [17]
  Plant response rating, Ryegrass, Italian: 95
[1]; [18]
  Plant response rating, Ryegrass, Italian: 75
[1]; [19]
  Plant response rating, Ryegrass, Italian: 100
[1]; [20]
  Plant response rating, Ryegrass, Italian: 80
[1]; [21]
  Plant response rating, Ryegrass, Italian: 50
[1]; [22]
  Plant response rating, Ryegrass, Italian: 75
[1]; [23]
  Plant response rating, Ryegrass, Italian: 100
[2]; [16]
  Plant response rating, Barnyardgrass: 40
[2]; [17]
  Plant response rating, Barnyardgrass: 15
[2]; [18]
  Plant response rating, Barnyardgrass: 50
[2]; [19]
  Plant response rating, Barnyardgrass: 30
[2]; [20]
  Plant response rating, Barnyardgrass: 50
[2]; [21]
  Plant response rating, Barnyardgrass: 30
[2]; [22]
  Plant response rating, Barnyardgrass: 0
[2]; [23]
  Plant response rating, Barnyardgrass: 40
[3]; [16]
  Plant response rating, Beggarticks: 90
[3]; [17]
  Plant response rating, Beggarticks: 100
[3]; [18]
  Plant response rating, Beggarticks: 98
[3]; [19]
  Plant response rating, Beggarticks: 100
[3]; [20]
  Plant response rating, Beggarticks: 98
[3]; [21]
  Plant response rating, Beggarticks: 90
[3]; [22]
  Plant response rating, Beggarticks: 100
[3]; [23]
  Plant response rating, Beggarticks: 100
Corn (Zea mays); [16]
  Plant response rating, Corn: 0
Corn (Zea mays); [17]
  Plant response rating, Corn: 0
Corn (Zea mays); [18]
  Plant response rating, Corn: 0
Corn (Zea mays); [19]
  Plant response rating, Corn: 0
Corn (Zea mays); [20]
  Plant response rating, Corn: 0
Corn (Zea mays); [21]
  Plant response rating, Corn: 0
Corn (Zea mays); [22]
  Plant response rating, Corn: 0
Corn (Zea mays); [23]
  Plant response rating, Corn: 5
[4]; [16]
  Plant response rating, Crabgrass, Brazil: 30
[4]; [17]
  Plant response rating, Crabgrass, Brazil: 100
[4]; [18]
  Plant response rating, Crabgrass, Brazil: 50
[4]; [19]
  Plant response rating, Crabgrass, Brazil: 100
[4]; [20]
  Plant response rating, Crabgrass, Brazil: 50
[4]; [21]
  Plant response rating, Crabgrass, Brazil: 20
[4]; [22]
  Plant response rating, Crabgrass, Brazil: 75
[4]; [23]
  Plant response rating, Crabgrass, Brazil: 100
[5]; [24]
  Plant response rating, Crabgrass, Large: 70
[5]; [25]
  Plant response rating, Crabgrass, Large: 80
[5]; [26]
  Plant response rating, Crabgrass, Large: 90
[6]; [16]
  Plant response rating, Field Bindweed: 80
[6]; [17]
  Plant response rating, Field Bindweed: 50
[6]; [18]
  Plant response rating, Field Bindweed: 95
[6]; [19]
  Plant response rating, Field Bindweed: 100
[6]; [20]
  Plant response rating, Field Bindweed: 85
[6]; [21]
  Plant response rating, Field Bindweed: 85
[6]; [22]
  Plant response rating, Field Bindweed: 65
[6]; [23]
  Plant response rating, Field Bindweed: 95
[7]; [24]
  Plant response rating, Foxtail, Giant: 65
[7]; [25]
  Plant response rating, Foxtail, Giant: 50
[7]; [27]
  Plant response rating, Foxtail, Giant: 30
[7]; [26]
  Plant response rating, Foxtail, Giant: 95
[8]; [24]
  Plant response rating, Foxtail, Green: 70
[8]; [25]
  Plant response rating, Foxtail, Green: 75
[8]; [27]
  Plant response rating, Foxtail, Green: 20
[8]; [26]
  Plant response rating, Foxtail, Green: 90
[9]; [16]
  Plant response rating, Horseweed: 70
[9]; [17]
  Plant response rating, Horseweed: 100
[9]; [18]
  Plant response rating, Horseweed: 75
[9]; [19]
  Plant response rating, Horseweed: 100
[9]; [20]
  Plant response rating, Horseweed: 80
[9]; [21]
  Plant response rating, Horseweed: 60
[9]; [22]
  Plant response rating, Horseweed: 90
[9]; [23]
  Plant response rating, Horseweed: 100
Kochia (Kochia scoparia); [16]
  Plant response rating, Kochia: 98
Kochia (Kochia scoparia); [17]
  Plant response rating, Kochia: 90
Kochia (Kochia scoparia); [18]
  Plant response rating, Kochia: 95
Kochia (Kochia scoparia); [19]
  Plant response rating, Kochia: 100
Kochia (Kochia scoparia); [20]
  Plant response rating, Kochia: 98
Kochia (Kochia scoparia); [21]
  Plant response rating, Kochia: 90
Kochia (Kochia scoparia); [22]
  Plant response rating, Kochia: 20
Kochia (Kochia scoparia); [23]
  Plant response rating, Kochia: 100
[10]; [24]
  Plant response rating, Morningglory: 80
[10]; [25]
  Plant response rating, Morningglory: 90
[10]; [27]
  Plant response rating, Morningglory: 70
[10]; [26]
  Plant response rating, Morningglory: 100
[11]; [24]
  Plant response rating, Nutsedge, Yellow: 10
[11]; [25]
  Plant response rating, Nutsedge, Yellow: 40
[11]; [27]
  Plant response rating, Nutsedge, Yellow: 0
[11]; [26]
  Plant response rating, Nutsedge, Yellow: 65
[12]; [16]
  Plant response rating, Panicum, Fall: 65
[12]; [17]
  Plant response rating, Panicum, Fall: 95
[12]; [18]
  Plant response rating, Panicum, Fall: 75
[12]; [19]
  Plant response rating, Panicum, Fall: 98
[12]; [20]
  Plant response rating, Panicum, Fall: 75
[12]; [21]
  Plant response rating, Panicum, Fall: 70
[12]; [22]
  Plant response rating, Panicum, Fall: 90
[12]; [23]
  Plant response rating, Panicum, Fall: 100
[13]; [16]
  Plant response rating, Pigweed, Palmer: 60
[13]; [17]
  Plant response rating, Pigweed, Palmer: 90
[13]; [18]
  Plant response rating, Pigweed, Palmer: 75
[13]; [19]
  Plant response rating, Pigweed, Palmer: 100
[13]; [20]
  Plant response rating, Pigweed, Palmer: 65
[13]; [21]
  Plant response rating, Pigweed, Palmer: 50
[13]; [22]
  Plant response rating, Pigweed, Palmer: 90
[13]; [23]
  Plant response rating, Pigweed, Palmer: 100
[14]; [16]
  Plant response rating, Ragweed: 90
[14]; [17]
  Plant response rating, Ragweed: 80
[14]; [18]
  Plant response rating, Ragweed: 90
[14]; [19]
  Plant response rating, Ragweed: 100
[14]; [20]
  Plant response rating, Ragweed: 90
[14]; [21]
  Plant response rating, Ragweed: 85
[14]; [22]
  Plant response rating, Ragweed: 85
[14]; [23]
  Plant response rating, Ragweed: 100
[15]; [24]
  Plant response rating, Velvetleaf: 75
[15]; [25]
  Plant response rating, Velvetleaf: 95
[15]; [27]
  Plant response rating, Velvetleaf: 0
[15]; [26]
  Plant response rating, Velvetleaf: 98
